Calls of active or inactive are those of the source.
Biological target: T1, Heat shock factor protein 1 (Mus musculus, UniProt P38532)
T1 sequence (P38532 whole entry): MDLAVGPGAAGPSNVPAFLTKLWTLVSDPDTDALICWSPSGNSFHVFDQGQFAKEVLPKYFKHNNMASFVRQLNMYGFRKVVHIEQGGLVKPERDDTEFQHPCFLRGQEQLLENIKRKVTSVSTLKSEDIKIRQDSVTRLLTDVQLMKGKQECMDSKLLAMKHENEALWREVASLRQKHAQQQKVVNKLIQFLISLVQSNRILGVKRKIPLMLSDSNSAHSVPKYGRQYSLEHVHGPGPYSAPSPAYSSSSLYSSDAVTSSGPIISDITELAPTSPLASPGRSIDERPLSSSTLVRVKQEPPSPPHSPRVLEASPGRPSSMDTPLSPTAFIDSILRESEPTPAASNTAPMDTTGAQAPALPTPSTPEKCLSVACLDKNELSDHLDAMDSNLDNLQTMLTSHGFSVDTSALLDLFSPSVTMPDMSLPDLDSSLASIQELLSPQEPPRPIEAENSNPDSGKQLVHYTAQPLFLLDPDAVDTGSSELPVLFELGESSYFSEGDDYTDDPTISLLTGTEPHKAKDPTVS
Experiment: inhibition of MG132-induced HSE-luciferase signal, confirmation, cell-based, NIH3T3, luminescence, dose retest (AID 2382);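 note: NIH3T3 fibroblasts with HSF1-driven luciferase reporter stressed by proteasome inhibitor MG132; luminescence from HSF1-driven luciferase expression after 8 hours of MG132 stress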
Assay type: functional
Settings: not given

| Compound | EC50 |
| --- | --- |
| CCCC(C)NC(=O)C1c2ccccc2Oc2ccccc21 (stereo not given) | > 195 µM (not active) |
| CC(NC(=O)c1ccc2c(c1)OCO2)c1ccccc1 (stereo not given) | > 195 µM (not active) |
| COc1cc(OC)cc(C(=O)N2CCN(S(C)(=O)=O)CC2)c1 | > 195 µM (not active) |
| CCN(Cc1ccc2c(c1)OCO2)C(=O)/C=C/c1cccc(Br)c1 | > 195 µM (not active) |
| CC(=O)C1=C(O)C(=O)N(c2ccc(C)cc2)C1c1ccccn1 (stereo not given) | > 195 µM (not active) |
| O=C(Nc1ccc(F)cc1)c1ccc(O)nn1 | > 195 µM (not active) |
| Cc1cc(=O)[nH]c2c1c(=O)[nH]n2C1CC(C)N(C)CC1C (stereo not given) | > 195 µM (not active) |
| COc1ccc(C(=O)C2CCCN(Cc3ccc(NC(C)=O)cc3)C2)cc1OC (stereo not given) | 60.1 µM (active) |
| Nc1ccc2oc(C3CCCCC3)nc2c1 | > 195 µM (not active) |
| CCCC1=Nc2cc(C(=O)NCCCN3CCN(C)CC3)ccc2Sc2ccccc21 | > 195 µM (not active) |
| CCC(=O)N1C(C(=O)N2CCCC2)CSC1c1ccc(OC)cc1 (stereo not given) | 32.2 µM (active) |
| Cn1c(-c2nonc2N)nc2ccccc21 | > 195 µM (not active) |
| COC(=O)c1c[nH]nc1N=C(S)Nc1ccc(Cl)c(Cl)c1 | 0.249 µM (active) |
| Nc1nonc1-c1noc(-c2ccccc2Br)n1 | > 195 µM (not active) |
| COc1ccc(N2CC(C(=O)Nc3nnc(C4CCCCC4)s3)CC2=O)cc1 (stereo not given) | > 195 µM (not active) |
| CCC(Sc1nc2cc(OC)c(OC)cc2c(=O)n1CCc1ccc(S(N)(=O)=O)cc1)C(=O)NCCOC (stereo not given) | > 195 µM (not active) |
| CCOC(=O)c1c(C)[nH]c(C(=O)COC(=O)C2=NNC(=O)CC2)c1C | > 195 µM (not active) |
| CC(=O)Nc1cccc(C(=O)/C=C/c2ccc(C)cc2)c1 | > 195 µM (not active) |
| O=C(N/N=C/c1ccc(Br)o1)c1ccc2c(c1)OCCO2 | > 195 µM (not active) |
| CCCCOc1ccc(C2C(=O)N(C3CCCCC3)CC(=O)N2CC2CCCO2)cc1 (stereo not given) | > 195 µM (not active) |
| O=C(NCc1ccncc1)c1ccc(Cl)c(S(=O)(=O)N2CCOCC2)c1 | > 195 µM (not active) |

| Compound | EC50 |
| --- | --- |
| Cn1c(C(C#N)C(=O)c2sc3ccccc3c2Cl)nc2ccccc21 (stereo not given) | > 195 µM (not active) |
| COc1ccccc1-n1ccnc(SCC(=O)NCc2ccccc2)c1=O | > 195 µM (not active) |
| Cc1ccc(C)c(N2CCN(CCN3CCCCC3)CC2)c1 | > 195 µM (not active) |
| Cc1nnc(N2C(=O)c3cccc4cccc(c34)C2=O)s1 | > 195 µM (not active) |
| c1ccc(Cc2nc3ccccc3o2)cc1 | > 195 µM (not active) |
| CSc1nsc(SCC(=O)NCc2ccc(C)cc2)n1 | > 195 µM (not active) |
| O=C(Nc1ccc(-n2ccnc2P(=O)(O)c2ccccc2)cc1)c1ccccc1Cl | > 195 µM (not active) |
| CC1=C(C(=O)Nc2ccccc2)C(c2cc(CN3CCOCC3)cs2)C2=C(O)CCCC2=N1 (stereo not given) | > 195 µM (not active) |
| CC(C)CCc1c(O)nc(SCC(=O)N2CCCCCC2)nc1O | > 195 µM (not active) |
| CCCS(=O)(=O)N1CCc2cc(OC)c(OC)cc2C1 | > 195 µM (not active) |
| CCn1c(=O)n(CC)c2cc(N3CCCC3)c(NC(=O)c3ccc(OC)c(Br)c3)cc21 | > 195 µM (not active) |
| CCN1CCN(C(=O)C2CCN(C(=O)c3cc4sccc4n3CC)CC2)CC1 | > 195 µM (not active) |
| CCOc1ccc(CNCCCSc2ncccn2)cc1OC | > 195 µM (not active) |
| O=[N+]([O-])c1ccc(/N=C/c2sc3ccccc3c2O)cc1 | > 195 µM (not active) |
| CCOC(=O)Cc1cc(O)c2cc(C)ccc2n1 | 86.1 µM (active) |
| CN(Cc1ccccc1)C(=O)CCS(=O)(=O)c1ccc2c(c1)n(C)c(=O)c(=O)n2C | > 195 µM (not active) |
| CCc1ccccc1NC(=O)CSc1nnc(-c2ccncc2)o1 | > 195 µM (not active) |
| COc1ccc(Nc2nc(C)cc(C)c2C#N)cc1OC | > 195 µM (not active) |
| CCCC1c2ccc(C)n2CCN1C(=O)Nc1ccc(F)cc1 (stereo not given) | > 195 µM (not active) |
| CCCC(=O)Nc1ccc(Cl)c(NC(=O)c2cccnc2)c1 | > 195 µM (not active) |

System: not listed separately
Experiment: cytotoxicity toward NIH3T3 fibroblasts, dose response, counter-screen, cell-based, ATP luminescence, mouse fibroblasts (AID 2010);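 note: cells exposed to compound for about 90 hours before reading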
Assay type: functional
Settings: not given

| Compound | EC50 |
| --- | --- |
| CC1=C(C(=O)N2CCc3ccccc32)C2(CCC(C)CC2)OC1=O (stereo not given) | > 60 µM (not active) |
| CCCCCCCC(=O)Nc1cc(C(=O)NCCC)ccc1N1CCC2(CC1)CC(c1ccccc1)=NO2 | > 60 µM (not active) |
| CCOC(=O)c1cc(-c2ccccc2)sc1NC(=O)CN1C(=O)NC(CC)(c2ccc(F)cc2)C1=O (stereo not given) | > 60 µM (not active) |
| CCOc1ccc2nc(O)c(CN(Cc3cccs3)Cc3nnnn3C(C)(C)CC)cc2c1 | > 30 µM (not active) |
| COc1ccc(-c2cc(C(=O)N3CCN(c4cccc(C)c4C)CC3)c3ccccc3n2)cc1OC | > 60 µM (not active) |
| O=C(Nc1ccncc1)c1ccc(-c2ccccc2)cc1 | > 60 µM (inconclusive) |
| Cc1ccc2sc(N(CCCN(C)C)C(=O)c3ccc(S(=O)(=O)N(C)Cc4ccccc4)cc3)nc2c1C | 11.7 µM (active) |
| CCCCSc1nc2sc3c(c2c(=O)n1-c1ccccc1)CCN(C)C3 | > 60 µM (not active) |
| O=C(CCc1nc(O)c2ccccc2n1)N1CCN(C/C=C/c2ccccc2)CC1 | > 30 µM (not active) |
| Cc1cc(N2CCN(C)CC2)nc2ccc(NC(=O)c3ccccc3F)cc12 | > 60 µM (not active) |
| FC(F)(F)c1cccc(-c2cc(C3CCNCC3)n[nH]2)c1 | 8.6 µM (active) |
| CC(C)CCNC(=O)CN=C(S)N(Cc1ccccc1)Cc1cccnc1 | > 60 µM (not active) |
| Cc1cccc2cc(CN(Cc3ccc(F)cc3)Cc3nnnn3C3CCCC3)c(O)nc12 | 28.9 µM (active) |
| CCCCSc1nc2ccc(Nc3nc(N4CCOCC4)nc(N4CCOCC4)n3)cc2s1 | > 60 µM (not active) |
| Cc1ccc(N/C(SCc2ccccc2C)=C(/C#N)C(=O)NCc2ccco2)cc1C | > 60 µM (not active) |
| COc1ccc(Cc2nc3c4c(ncn3n2)Oc2ccc3ccccc3c2C4c2ccc(OC)c(OC)c2)cc1 (stereo not given) | > 60 µM (inconclusive) |
| Cc1occc1C(=O)N/N=C/c1ccc(-c2cccc([N+](=O)[O-])c2)o1 | > 60 µM (not active) |
| O=[N+]([O-])c1ccc(S(=O)(=O)N2CCN(Cc3c[nH]c4ccccc34)CC2)cc1 | > 60 µM (not active) |
| CCOc1cc(C)c(Cl)cc1S(=O)(=O)n1ccnc1 | 21.4 µM (active) |
| Cc1ccc(C(=O)NC(=S)Nc2ccc(Oc3ccc(Cl)cc3)cc2)cc1 | > 60 µM (inconclusive) |
| Clc1ccc(SCCOCCN2CCOCC2)cc1 | > 60 µM (not active) |
| COc1ccc(CCN=C(S)NCc2ccc(Cl)c(Cl)c2)cc1OC | > 60 µM (inconclusive) |
| O=C(CCN1CCN(c2ccccc2)CC1)c1ccc(Br)cc1 | > 60 µM (not active) |
| CC1CCCCN1C(=O)C(=O)c1cn(CC(=O)N2CCCCCC2)c2ccccc12 (stereo not given) | > 60 µM (not active) |

Biological target: Cytochrome P450 2C19 (Homo sapiens, UniProt P33261)
Experiment: Cytochrome panel assay with activity outcomes. Panel member name: p450-cyp2c19 Compounds with AC50 equal or less than 10 uM are considered active
Assay type: functional
Settings: not given

Sequence of Cytochrome P450 2C19 (P33261 whole entry): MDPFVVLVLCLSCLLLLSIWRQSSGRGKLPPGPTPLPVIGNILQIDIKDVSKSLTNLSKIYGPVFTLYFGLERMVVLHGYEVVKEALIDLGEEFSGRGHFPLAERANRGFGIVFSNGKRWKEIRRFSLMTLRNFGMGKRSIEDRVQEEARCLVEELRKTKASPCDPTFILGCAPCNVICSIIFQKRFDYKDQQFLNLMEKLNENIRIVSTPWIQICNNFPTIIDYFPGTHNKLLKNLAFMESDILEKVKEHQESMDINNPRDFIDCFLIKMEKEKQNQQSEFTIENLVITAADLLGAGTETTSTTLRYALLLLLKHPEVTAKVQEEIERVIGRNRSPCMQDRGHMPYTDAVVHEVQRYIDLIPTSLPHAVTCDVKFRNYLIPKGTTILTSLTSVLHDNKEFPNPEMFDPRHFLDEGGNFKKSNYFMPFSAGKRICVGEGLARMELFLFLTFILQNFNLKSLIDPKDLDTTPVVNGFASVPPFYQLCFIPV

| Compound | AC50 |
| --- | --- |
| CSC(=N)NCCC[C@@H](N)C(=O)O [S-METHYL-D-THIOCITRULLINE] | inconclusive |
| Nc1c(S(N)(=O)=O)cc(S(N)(=O)=O)cc1S(N)(=O)=O | inconclusive |
| Cc1cc(C(=O)Nc2c(C)n(C)n(-c3ccccc3)c2=O)c2ccccc2n1 | inconclusive |
| C[N+](C)(C)c1ncnc2c1ncn2[C@@H]1CCCCO1 | inconclusive |
| CCCc1cc(=O)[nH]c(=S)[nH]1 [PROPYLTHIOURACIL] | inconclusive |
| C/C(=C\C=C/[C@@H](C)C(=O)O)[C@H]1CN[C@H](C(=O)O)[C@@H]1CC(=O)O | inconclusive |

Same assay, conditions: read-out: AC50

| Compound | AC50 |
| --- | --- |
| CC1(C)C2([N+](=O)[O-])CN3CC1([N+](=O)[O-])CN(C2)C3c1ccccc1 (stereo not given) | 0.355 µM (inconclusive) |
| Cc1ccsc1-c1nc(-c2ccccc2)c(-c2ccccc2)[nH]1 | 10 µM (inconclusive) |
| Cc1nc2cnc(Oc3cccc(Cl)c3)nc2n(C2CC2)c1=O | 31.6 µM (inconclusive) |
| O=C(c1cccc(F)c1)N1CCC[C@@]2(CCN(c3ccncc3)C2)C1 | 2.51 µM (inconclusive) |
| COc1ccc(OC)c(CNC(=O)CCNC(=O)Cn2ccc3ccccc3c2=O)c1 | 31.6 µM (inconclusive) |

System: not listed separately
Experiment: inhibitors of intracellular T. cruzi replication, confirmation, NIH3T3 host cells, beta-gal luminescence (AID 2044);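 note: intracellular parasites grown in NIH/3T3 mouse fibroblasts as host cells; luminescent beta-galactosidase reporter signal from transgenic T. cruzi replicating inside host cells; inhibitors lower the luminescence signal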
Assay type: functional, cell-based
Settings: not given

| Compound | EC50 |
| --- | --- |
| CC1=C(C(=O)N2CCc3ccccc32)C2(CCC(C)CC2)OC1=O (stereo not given) | 2.67 µM (active) |
| CCCCCCCC(=O)Nc1cc(C(=O)NCCC)ccc1N1CCC2(CC1)CC(c1ccccc1)=NO2 | 1.76 µM (active) |
| CCOC(=O)c1cc(-c2ccccc2)sc1NC(=O)CN1C(=O)NC(CC)(c2ccc(F)cc2)C1=O (stereo not given) | 2.21 µM (active) |
| CCOc1ccc2nc(O)c(CN(Cc3cccs3)Cc3nnnn3C(C)(C)CC)cc2c1 | 2.56 µM (active) |
| COc1ccc(-c2cc(C(=O)N3CCN(c4cccc(C)c4C)CC3)c3ccccc3n2)cc1OC | 2.93 µM (active) |
| O=C(Nc1ccncc1)c1ccc(-c2ccccc2)cc1 | 1.44 µM (active) |
| Cc1ccc2sc(N(CCCN(C)C)C(=O)c3ccc(S(=O)(=O)N(C)Cc4ccccc4)cc3)nc2c1C | 0.451 µM (active) |
| CCCCSc1nc2sc3c(c2c(=O)n1-c1ccccc1)CCN(C)C3 | 0.143 µM (active) |
| O=C(CCc1nc(O)c2ccccc2n1)N1CCN(C/C=C/c2ccccc2)CC1 | 0.276 µM (active) |
| Cc1cc(N2CCN(C)CC2)nc2ccc(NC(=O)c3ccccc3F)cc12 | 1.02 µM (active) |
| FC(F)(F)c1cccc(-c2cc(C3CCNCC3)n[nH]2)c1 | 3.5 µM (active) |
| CC(C)CCNC(=O)CN=C(S)N(Cc1ccccc1)Cc1cccnc1 | 0.65 µM (active) |
| Cc1cccc2cc(CN(Cc3ccc(F)cc3)Cc3nnnn3C3CCCC3)c(O)nc12 | 2.38 µM (active) |
| CCCCSc1nc2ccc(Nc3nc(N4CCOCC4)nc(N4CCOCC4)n3)cc2s1 | 1.45 µM (active) |
| Cc1ccc(N/C(SCc2ccccc2C)=C(/C#N)C(=O)NCc2ccco2)cc1C | 1.3 µM (active) |
| COc1ccc(Cc2nc3c4c(ncn3n2)Oc2ccc3ccccc3c2C4c2ccc(OC)c(OC)c2)cc1 (stereo not given) | 1.52 µM (active) |
| Cc1occc1C(=O)N/N=C/c1ccc(-c2cccc([N+](=O)[O-])c2)o1 | 2.05 µM (active) |
| O=[N+]([O-])c1ccc(S(=O)(=O)N2CCN(Cc3c[nH]c4ccccc34)CC2)cc1 | 1.31 µM (active) |
| CCOc1cc(C)c(Cl)cc1S(=O)(=O)n1ccnc1 | 1.83 µM (active) |
| Cc1ccc(C(=O)NC(=S)Nc2ccc(Oc3ccc(Cl)cc3)cc2)cc1 | 2.09 µM (active) |
| Clc1ccc(SCCOCCN2CCOCC2)cc1 | 0.803 µM (active) |
| COc1ccc(CCN=C(S)NCc2ccc(Cl)c(Cl)c2)cc1OC | 2.05 µM (active) |
| O=C(CCN1CCN(c2ccccc2)CC1)c1ccc(Br)cc1 | 1.85 µM (active) |
| CC1CCCCN1C(=O)C(=O)c1cn(CC(=O)N2CCCCCC2)c2ccccc12 (stereo not given) | 1.49 µM (active) |
